Assay results from patent US12344614B2, “Benzodiazepine derivatives as GABA a GAMMA1 PAM” (Hoffmann-La Roche Inc., priority 2021, dated 2025).
Like-named read-outs stand apart in the source and are kept apart here.

How the values were obtained:
[1] = molecular target: human GABAA α2β2γ1 receptor (Homo sapiens (Human), UniProt P47869+Q8N1C3); assay: Radioligand binding assay, competition for [3H]RO7239181, membranes from HEK293F cells
Method: (§1) The affinity of compounds at GABAA γ1 subunit-containing receptors was measured by competition for [^3H]RO7239181 (67.3 Ci/mmol; Roche) binding to membranes from HEK293F cells (ThermoFisher R79007) expressing human (transiently transfected) receptors of composition α5β2γ1, α2β2γ1, α1β2γ1.
(§2) Harvested pellets from HEK293F cells expressing the different GABAA receptor subtypes were resuspended in Mannitol Buffer pH 7.2-7.4 (Mannitol 0.29M, Triethylamine 10 mM, Acetic acid 10 mM, EDTA 1 mM plus protease inhibitors (20 tablets Complete, Roche Diagnostics Cat. No. 05 056 489 001 per liter)), washed two times and then resuspended at 1:10 to 1:15 dilution in the same buffer. Cell disruption was performed by stirring the suspension in a Parr vessel #4637 at 435 psi for 15 minutes, and then the suspensions were centrifuged at 1000×g for 15 minutes at 4° C. (Beckman Avanti J-HC; rotor JS-4.2). The supernatant (S1) was transferred in a 21 Schott flask and the pellet (P1) was resuspended with Mannitol Buffer up to 175 ml. The resuspended pellet was transferred into a 250 ml Corning centrifugal beaker and centrifuged at 1500×g for 10 minutes at 4° C. (Beckman Avanti J-HC; rotor JS-4.2). The supernatant (S1) was then transferred in the 21 Schott flask and the pellet was discarded. The supernatants (S1) were centrifuged in 500 ml Beckman polypropylene centrifugal beaker at 15′000×g for 30 minutes at 4° C. (Beckman Avanti J-20 XP; rotor JLA-10.500). The pellet (P2) was resuspended with Mannitol Buffer 1:1 and frozen at −80° C. The supernatant (S2) was centrifuged in 100 ml Beckman polypropylene centrifugal tubes at 48000×g for 50 minutes at 4° C. (Beckman Avanti J-20 XP; rotor JA-18). The supernatant (S3) was discarded and the pellet (P3) was resuspended with 1:1 Mannitol Buffer. The P2 and P3 protein concentration was determined with the BIORAD Standard assay method with bovine serum albumin as standard and measured on the NANO-Drop 1000. The membrane suspension was aliquots (500 μl per tube) and stored at −80° C. until required.
(§3) Membrane homogenates were resuspended and polytronised (Polytron PT1200E Kinematica AG) in Potassium Phosphate 10 mM, KCl 100 mM binding buffer at pH 7.4 to a final assay concentration determined with a previous experiment.
(§4) Assays were incubated to equilibrium for 1 hour at 4° C. and then, membranes were filtered onto unifilter (96-well white microplate with bonded GF/C filters preincubated 20-50 minutes in 0.3% Polyethylenimine) with a Filtermate 196 harvester (Packard BioScience) and washed 4 times with cold Potassium Phosphate 10 mM pH 7.4, KCl 100 mM binding buffer. After anhydrousing, filter-retained radioactivity was detected by liquid scintillation counting. Ki values were calculated using Excel-Fit (Microsoft) and are the means of two determinations.

[2] = molecular target: human GABAA α1β3γ2 receptor (Homo sapiens (Human), UniProt P14867+P18507); assay: Radioligand binding assay, competition for [3H]Flumazenil, HEK293F cells; conditions: for γ2/γ1 Selectivity Ratio: Ki α1β3γ2 (nM)/Ki α2β2γ1 (nM); for LogSel: Log[Ki α1β3γ2 (nM)/Ki α2β2γ1 (nM)]
Method: The affinity of compounds at GABAA γ2 subunit-containing receptors was measured by competition for [^3H]Flumazenil (81.1 Ci/mmol; Roche) binding to HEK293F cells expressing human (transiently transfected) receptors of composition α1β3γ2.
Harvested pellets from HEK293F cells expressing the different GABAA γ2 receptor subtypes were resuspended in Mannitol Buffer pH 7.2-7.4 and processed as described above for the cells expressing the GABAA γ1 subunit-containing receptors.
Assays were incubated to equilibrium for 1 hour at 4° C. and harvested onto GF/C uni-filters (Packard) by filtration using a Packard harvester and washing with ice-cold wash buffer (50 mM Tris; pH 7.5). After anhydrousing, filter-retained radioactivity was detected by liquid scintillation counting. Ki values were calculated using Excel-Fit (Microsoft) and are the means of two determinations.

h-GABA-A α2β2γ1 receptor = h-GABA-A α2β2γ1 receptor (Homo sapiens (Human), UniProt P47869+Q8N1C3); assay: Two-electrode voltage clamp electrophysiology in Xenopus oocytes expressing GABAA receptors; assay type: cell-based; conditions: for potentiation of the GABA-induced current: α2β2γ1 GABAA receptor subtype expressing oocytes, GABA EC20, reference PAMs
Method: Xenopus laevis oocytes at maturation stages V-VI were used for the expression of cloned mRNA encoding GABAA receptor subunits. Oocytes ready for RNA micro-injection were bought from Ecocyte, Castrop-Rauxel, Germany and stored in modified Barth's medium (composition in mM: NaCl 88, KCl 1, NaHCO3 2.4, HEPES 10, MgSO4 0.82, CaNO3 0.33, CaCl2 0.33, pH=7.5) at 20° C. until the experiment.
Oocytes were plated in 96-well plates for microinjection using the Roboinject automated instrument (MultiChannelSystems, Reutlingen, Germany). Approximately 50 nL of an aqueous solution containing the RNA transcripts for the subunits of the desired GABAA receptor subtype was injected into each oocyte. […] Oocytes were kept in modified Barth's medium (composition in mM: NaCl 88, KCl 1, NaHCO3 4, HEPES 10, MgSO4 0.82, CaNO3 0.33, CaCl, 0.33, pH=7.5) at 20° C. until the experiment.
Electrophysiological experiments were performed using the Roboocyte instrument (MultiChannelSystems, Reutlingen, Germany) on days 3 to 5 after the micro-injection of mRNA. During the experiment the oocytes were constantly superfused by a solution containing (in mM) NaCl 90, KCl 1, HEPES 5, MgCl2 1, CaCl2 1 (pH 7.4). Oocytes were impaled by two glass microelectrodes (resistance: 0.5-0.8 MΩ) which were filled with a solution containing KCl 1M+K-acetate 1.5 M and voltage-clamped to −80 mV. The recordings were performed at room temperature using the Roboocyte two-electrode voltage clamp system (Multichannelsystem). After an initial equilibration period of 1.5 min GABA was added for 1.5 min at a concentration evoking approximately 20% of a maximal current response (EC2O). After another rest interval of 2.5 min GABA was again added evoking a response of similar amplitude and shape. […] Current traces were recorded at a digitization rate of 10 Hz during and shortly before and after the GABA application.
Each compound and concentration was tested on at least 3 oocytes. Different oocytes were used for different compound concentrations.
For the analysis, the digitized current traces of the first and second GABA response were superimposed and, if necessary, rescaled to equal maximal amplitudes. The ratio between the two responses during the time interval of test compound application was calculated point by point. The extremum of the resulting “ratio trace” was taken as the efficacy (“Fold increase”) of the compound expressed as “% modulation of GABA EC20” (100*(Fold increase−1)).

[3] = molecular target: human GABAA α5β2γ1 receptor (Homo sapiens (Human), UniProt P31644+Q8N1C3); assay: Radioligand binding assay, competition for [3H]RO7239181, membranes from HEK293F cells
Method: as §1, with “α1β2γ1. For better protein expression of the α2 subunit-containing receptors, the 28 amino acid long signal peptide (Met1 to Ala28) of the human GABAA α2 subunit was substituted by the 31 amino acid long signal peptide (Met1 to Ser31) of human GABAA α5 subunit.” for “α1β2γ1.”
as §2, §3
as §4, with “Radioligand binding assays were carried out in a volume of 200 μL (96-well plates) which contained 100 μL of cell membranes, [^3H]RO7239181 at a concentration of 1.5 nM (α5β2γ1) or 20-30 nM (α1β2γ1, α2β2γ1) and the test compound in the range of [0.3-10000]×10^−9 M. Nonspecific binding was defined by 10×10^−6 (α5β2γ1) and 30×10^−6 M RO7239181 and typically represented less than 5% (α5β2γ1) and less than 20% (α1β2γ1, α2β2γ1) of the total binding. Assays” for “Assays”
Representative test results, obtained by the above described assay measuring binding affinity to HEK293 cells expressing human (h) receptors, are shown in the Table 1.

[4] = read-out: Ki h-GABAA α2β2γ1, [3H]RO7239181 20-30 nM, HEK293F membranes, 1 hour at 4° C., mean of two determinations

Row | SMILES | Ki [1] [nM] | Ki [2] [nM] | γ2/γ1 Selectivity Ratio [2] | LogSel [2] | Ki [3] [nM] | Ki [1, 4] [nM] | other results
1 | CN1C(=O)CN=C(c2cc(O)ccc2F)c2cc(Cl)ccc21 [RE-B, 7-chloro-5-(2-fluoro-5-hydroxy-phenyl)-1-methyl-3H-1,4-benzodiazepin-2-one, reference compound] | 1.9 | 1.1 | 0.58 | −0.24 |  |  | 
2 | CN1C(=O)CN=C(c2cc(O)ccc2Cl)c2cc(Cl)ccc21 [RE-A, 7-chloro-5-(2-chloro-5-hydroxy-phenyl)-1-methyl-3H-1,4-benzodiazepin-2-one, reference compound] |  |  |  | −0.27 |  |  | Ki ([1]; [3H]RO7239181 20-30 nM, HEK293F membranes, 1 hour at 4° C., mean of two determinations, read-out: Ki h-GABAA α2β2γ1): 2.8 nM
3 | Cc1ncc2n1-c1ccc(Cl)cc1C(c1ccccc1F)=NC2 [Midazolam, reference compound] |  |  |  | −2.2 |  |  | potentiation of the GABA-induced current (h-GABA-A α2β2γ1 receptor): ~60%
4 | Cc1nnc2n1-c1ccc(Cl)cc1C(c1ccccc1)=NC2 [Alprazolam, reference compound] |  |  |  | −2.3 |  |  | 
5 | CC(C)NC(=O)c1cn2c(n1)[C@H](C)N=C(c1nc(O)ccc1F)c1c-2ccc(C(F)(F)F)c1Cl [Example 32, (4S)-7-chloro-6-(3-fluoro-6-hydroxy-2-pyridyl)-N-isopropyl-4-methyl-8-(trifluoromethyl)-4H-imidazo[1,2-a][1,4]benzodiazepine-2-carboxamide] | 10.8 | 8600 | 796.0 | 2.90 | 4.7 | 10.8 | 
6 | Cc1cn2c(n1)[C@H](C)N=C(c1nc(O)ccc1Cl)c1c-2ccc(C(F)(F)F)c1Cl [Example 27, 5-chloro-6-[(4S)-7-chloro-2,4-dimethyl-8-(trifluoromethyl)-4H-imidazo[1,2-a][1,4]benzodiazepin-6-yl]pyridin-2-ol] | 5.22 | 3550 | 679.2 | 2.83 | 2.8 | 5.22 | 
7 | Cc1nnc2n1-c1ccc(Cl)c(Cl)c1C(c1c(F)ccc(O)c1F)=N[C@H]2C [Example 19, 2,4-difluoro-3-[(4S)-7,8-dichloro-1,4-dimethyl-4H-[1,2,4]triazolo[4,3-a][1,4]benzodiazepin-6-yl]phenol] | 3.12 | 33 | 10.6 | 1.02 | 2.12 | 3.12 | 
8 | C[C@@H]1N=C(c2nc(O)ccc2F)c2c(ccc(C(F)(F)F)c2Cl)-n2nc(C(=O)N3CC(F)C3)nc21 [Example 21, [(4S)-7-chloro-6-(3-fluoro-6-hydroxy-2-pyridyl)-4-methyl-8-(trifluoromethyl)-4H-[1,2,4]triazolo[1,5-a][1,4]benzodiazepin-2-yl]-(3-fluoroazetidin-1-yl)methanone] | 11.8 |  |  |  |  |  | Ki ([3]; read-out: Ki h-GABAA α5β2γ1, [3H]RO7239181 […], HEK293F membranes, 1 hour at 4° C., mean of two determinations): 5.51 nM; Ki ([2]; read-out: Ki h-GABAA α1β3γ2, [3H]Flumazenil 1 nM, HEK293F membranes, 1 hour at 4° C., mean of two determinations): > 30000 nM; Efficacy (GABA) % (h-GABA-A α2β2γ1 receptor; % modulation of GABA EC20 = 100*(Fold increase−1), compound at 30-fold Ki α2β2γ1): 73%
9 | CN1C(=O)CN=C(c2ccccc2F)c2cc([N+](=O)[O-])ccc21 [Flunitrazepam, reference compound] |  |  |  |  |  |  | potentiation of the GABA-induced current (h-GABA-A α2β2γ1 receptor): ~60%
10 | C[C@@H]1N=C(c2nc(O)ccc2F)c2c(ccc(C(F)(F)F)c2Cl)-n2cc(C(=O)NC3CC3)nc21 [Example 31, (4S)-7-chloro-N-cyclopropyl-6-(3-fluoro-6-hydroxy-2-pyridyl)-4-methyl-8-(trifluoromethyl)-4H-imidazo[1,2-a][1,4]benzodiazepine-2-carboxamide] | 15.6 | 12500 | 800.9 | 2.90 | 4.4 | 15.6 | 
11 | Clc1ccc2c(c1)C(c1ccccc1)=NCc1nncn1-2 [Estazolam, reference compound] |  |  |  | −2.0 |  |  | 
12 | Cc1nnc2n1-c1ccc(Cl)cc1C(c1ccccc1Cl)=NC2 [Triazolam, reference compound] |  |  |  | −1.5 |  |  | potentiation of the GABA-induced current (h-GABA-A α2β2γ1 receptor): ~60%
